{"source": "patent US7132504B2", "about": "“Hepatitis C virus inhibitors” (Bristol-Myers Squibb Company, priority 2003, dated 2006)", "key": {"[1]": {"target": "BMS strain of the NS3/4A protease complex (UniProt P27958, C1454S/C1711G, species not given/STRAIN_BMS)", "test": "Recombinant HCV NS3/4A protease complex FRET peptide assay, BMS strain", "assay_type": "biochemical, HCV genotype 1a (BMS strain)", "description": "(§1) The purpose of this in vitro assay was to measure the inhibition of HCV NS3 protease complexes, derived from the BMS strain, H77 strain or J416S strain, as described below, by compounds of the present invention. This assay provides an indication of how effective compounds of the present invention would be in inhibiting HCV proteolytic activity.\n(§2) Serum from an HCV-infected patient was obtained from Dr. T. Wright, San Francisco Hospital. An engineered full-length cDNA (compliment deoxyribonucleic acid) template of the HCV genome (BMS strain) was constructed from DNA fragments obtained by reverse transcription-PCR (RT-PCR) of serum RNA (ribonucleic acid) and using primers selected on the basis of homology between other genotype 1a strains. From the determination of the entire genome sequence, a genotype 1a was assigned to the HCV isolate according to the classification of Simmonds et al. (See P Simmonds, K A Rose, S Graham, S W Chan, F McOmish, B C Dow, E A Follett, P L Yap and H Marsden, J. Clin. Microbiol., 31(6), 1493–1503 (1993)). […]"}, "[2]": {"target": "T1, NS3/4A protease complex, H77 strain (Hepatitis C virus genotype 1a, UniProt P27958, C1454S/C1711G)", "T1 construct": "DNA encoding the recombinant HCV NS3/4A protease complex (amino acids 1027 to 1711) for these strains; inferred from pET21b vector and Ni-NTA purification; made in house; host or cells: Escherichia coli BL21 (DE3), pET21b", "T1 sequence (P27958 1027-1711 C1454S/C1711G, one chain of several)": "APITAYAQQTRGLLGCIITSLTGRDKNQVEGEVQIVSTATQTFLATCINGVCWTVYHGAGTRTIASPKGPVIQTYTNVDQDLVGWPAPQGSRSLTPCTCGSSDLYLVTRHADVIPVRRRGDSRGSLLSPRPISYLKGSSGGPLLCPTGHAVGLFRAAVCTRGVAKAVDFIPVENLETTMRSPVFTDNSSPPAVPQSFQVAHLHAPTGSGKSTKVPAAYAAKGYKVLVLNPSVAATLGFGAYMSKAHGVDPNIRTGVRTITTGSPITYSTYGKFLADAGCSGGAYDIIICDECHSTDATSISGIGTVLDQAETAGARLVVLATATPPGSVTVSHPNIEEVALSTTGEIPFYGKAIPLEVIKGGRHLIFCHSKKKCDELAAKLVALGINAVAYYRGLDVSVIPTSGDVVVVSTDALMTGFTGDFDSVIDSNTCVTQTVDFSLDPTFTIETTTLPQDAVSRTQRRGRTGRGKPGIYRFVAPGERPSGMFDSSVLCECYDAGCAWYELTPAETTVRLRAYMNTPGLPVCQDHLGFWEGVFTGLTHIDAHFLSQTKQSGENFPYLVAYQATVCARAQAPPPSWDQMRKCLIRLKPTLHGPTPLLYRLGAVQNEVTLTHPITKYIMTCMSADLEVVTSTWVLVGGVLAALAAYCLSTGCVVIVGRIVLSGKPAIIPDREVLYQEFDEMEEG", "test": "Recombinant HCV NS3/4A protease complex FRET peptide assay, H77 strain", "assay_type": "biochemical, HCV genotype 1a (H77)", "description": "as §1, §2"}}, "data": [{"smiles": "C=CC1C[C@]1(NC(=O)[C@@H]1C[C@@H](Oc2cc(-c3ccccc3)nc3cc(OC)ccc23)CN1C(=O)[C@@H](NC(=O)OC)C(C)(C)C)C(=O)NS(=O)(=O)N(C)Cc1ccccc1", "note": "(some centres unmarked) [Compound 9]", "values": [{"measurement": "IC50", "setting": "[1]", "result": 128, "unit": "nM"}, {"measurement": "IC50", "setting": "[2]", "result": 62, "unit": "nM"}]}]}
